Some test systems named below: CCRF-CEM leukemia; LOX IMVI melanoma; U251 CNS; MOLT-4 leukemia; NCI-H460 lung; SK-MEL-28 melanoma; HOP-92 NSCLC; SF-268 CNS; RPMI-8226 leukemia; SF-295 CNS; NCI-H226 lung; SR leukemia; RXF 393 renal; UACC-257 melanoma; SK-MEL-2 melanoma; UO-31 renal; SF-539 CNS; NCI-H522 lung; SNB-19 CNS; OVCAR-4 ovarian.
What all share (experiment): NCI anticancer screen, dose series, 48 h

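Tested at 5 concentrations; 48 h exposure; 96-well plates; endpoints linearly interpolated, else capped at highest concentration. At the TGI there is no net growth.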

`COc1ccc(Nc2cnc3cc(N)ccc3n2)cc1OC`: the TGI in the assay with CCRF-CEM leukemia, with LOX IMVI melanoma, in the assay with U251 CNS, in the assay with MOLT-4 leukemia, with NCI-H460 lung and in the assay with SK-MEL-28 melanoma was more than 100 µM in each case. For the same molecule, the TGI in the assay with HOP-92 NSCLC is 42.5 µM; in the assay with SF-268 CNS, more than 100 µM; in the assay with RPMI-8226 leukemia, 86.2 µM; with SF-295 CNS, more than 100 µM; with NCI-H226 lung it was more than 100 µM; in the assay on SR leukemia, more than 100 µM. For the same molecule, the TGI in the assay on RXF 393 renal, with UACC-257 melanoma, with SK-MEL-2 melanoma and in the assay with UO-31 renal was more than 100 µM throughout.
As for `CC(=O)Nc1ccc(C(=O)NN2C(=O)C(Cl)C2/C=C/c2ccccc2)cc1` (stereo not drawn), the TGI in the assay with CCRF-CEM leukemia, in the assay with U251 CNS, in the assay on SF-539 CNS, in the assay with MOLT-4 leukemia, in the assay on NCI-H460 lung and in the assay with NCI-H522 lung was more than 100 µM throughout. Besides, the TGI with SK-MEL-28 melanoma, in the assay with HOP-92 NSCLC, with SF-268 CNS, in the assay with RPMI-8226 leukemia, in the assay with SF-295 CNS and in the assay on NCI-H226 lung was more than 100 µM in each case. Besides, the TGI with SR leukemia, in the assay on UACC-257 melanoma, in the assay with SK-MEL-2 melanoma, in the assay on UO-31 renal and in the assay with SNB-19 CNS was more than 100 µM in each case.
Take `COC(=O)C(Cc1cc(OC)c(OC)c(OC)c1)(NC(=O)c1ccccc1)P(=O)(OC)OC` (stereo not drawn): the TGI with CCRF-CEM leukemia, with LOX IMVI melanoma, with U251 CNS, in the assay with SF-539 CNS, in the assay with MOLT-4 leukemia and in the assay on NCI-H460 lung was more than 100 µM each time. The TGI with NCI-H522 lung, with SK-MEL-28 melanoma, with HOP-92 NSCLC, with SF-268 CNS, in the assay on RPMI-8226 leukemia and with SF-295 CNS was more than 100 µM each time. For the same molecule, the TGI in the assay on NCI-H226 lung, in the assay on SR leukemia, in the assay on RXF 393 renal, in the assay on UACC-257 melanoma, with OVCAR-4 ovarian and in the assay with SK-MEL-2 melanoma was more than 100 µM throughout. The TGI in the assay with UO-31 renal and in the assay on SNB-19 CNS was more than 100 µM each time.
`Nc1[nH]nc2c1Cc1c(n(Cc3ccc(Cl)cc3)c3ccccc13)C(=O)N2`: the TGI was 26.6 µM with CCRF-CEM leukemia; 26.4 µM in the assay with LOX IMVI melanoma; 29.9 µM with SF-539 CNS; 29.3 µM in the assay on MOLT-4 leukemia; 27.3 µM with NCI-H460 lung; more than 100 µM with SK-MEL-28 melanoma. The TGI with HOP-92 NSCLC is 31.5 µM; in the assay on SF-268 CNS, 47.8 µM; in the assay with SF-295 CNS it was 35.9 µM; in the assay with NCI-H226 lung, 44.7 µM; in the assay on SR leukemia it was more than 100 µM; in the assay on RXF 393 renal, 25.9 µM. Also, the TGI in the assay on UACC-257 melanoma came out at 46.4 µM; in the assay on OVCAR-4 ovarian, 32 µM; in the assay with SK-MEL-2 melanoma it was 34.3 µM; in the assay on UO-31 renal, 19.4 µM.
On to `c1ccc2c(CCNC3=NCCO3)cccc2c1`, for which the TGI in the assay on CCRF-CEM leukemia, with LOX IMVI melanoma, in the assay with U251 CNS, in the assay with SF-539 CNS, in the assay on MOLT-4 leukemia and in the assay with NCI-H460 lung was more than 10 µM in each case. The TGI with NCI-H522 lung, in the assay on SK-MEL-28 melanoma, in the assay with SF-268 CNS, in the assay on RPMI-8226 leukemia, in the assay with SF-295 CNS and in the assay with NCI-H226 lung was more than 10 µM each time. Further, the TGI with SR leukemia, in the assay on RXF 393 renal, in the assay on OVCAR-4 ovarian, in the assay with SK-MEL-2 melanoma, in the assay with UO-31 renal and with SNB-19 CNS was more than 10 µM in each case.
As to `O=c1n(CC2CO2)c2ccccc2n1CC1CS1` (stereo not drawn), the TGI in the assay with CCRF-CEM leukemia, in the assay with LOX IMVI melanoma, with SF-539 CNS, in the assay with MOLT-4 leukemia, with NCI-H460 lung and with NCI-H522 lung was more than 100 µM each time. For the same molecule, the TGI with SK-MEL-28 melanoma, in the assay with HOP-92 NSCLC, with SF-268 CNS, with RPMI-8226 leukemia, with SF-295 CNS and with NCI-H226 lung was more than 100 µM throughout. Moreover, the TGI in the assay with SR leukemia, in the assay on RXF 393 renal, in the assay with OVCAR-4 ovarian, in the assay on SK-MEL-2 melanoma, with UO-31 renal and in the assay with SNB-19 CNS was more than 100 µM in each case.
On to `CSc1nc(NC2OC(CO)C(O)C(O)C2O)c(N)c(=O)[nH]1` (stereo not drawn), for which the TGI in the assay on CCRF-CEM leukemia, with LOX IMVI melanoma, in the assay with U251 CNS, with SF-539 CNS, in the assay on MOLT-4 leukemia and with NCI-H460 lung was more than 100 µM in each case. Further, the TGI with NCI-H522 lung, in the assay on SK-MEL-28 melanoma, in the assay with HOP-92 NSCLC, with SF-268 CNS, with RPMI-8226 leukemia and in the assay on SF-295 CNS was more than 100 µM each time. In addition, the TGI in the assay with NCI-H226 lung, with RXF 393 renal, in the assay with UACC-257 melanoma, in the assay with OVCAR-4 ovarian, in the assay with SK-MEL-2 melanoma and in the assay on UO-31 renal was more than 100 µM throughout. The molecule also registered a TGI with SNB-19 CNS of more than 100 µM.
For `O=[N+]([O-])c1cnccc1-n1nnc2ccccc21`, the TGI in the assay with CCRF-CEM leukemia was more than 86.5 µM; with LOX IMVI melanoma it was 32.8 µM; with U251 CNS it was more than 81.8 µM; with SF-539 CNS, 45.8 µM; in the assay on MOLT-4 leukemia, more than 75.7 µM; in the assay on NCI-H460 lung, more than 87 µM. For the same molecule, the TGI in the assay with NCI-H522 lung is 38.5 µM; in the assay with SK-MEL-28 melanoma, 48.4 µM; in the assay on HOP-92 NSCLC, more than 71.1 µM; in the assay on SF-268 CNS, more than 62.3 µM; in the assay on RPMI-8226 leukemia, more than 100 µM; in the assay with SF-295 CNS, more than 74.7 µM. In addition, the TGI with NCI-H226 lung was 49.8 µM; in the assay with RXF 393 renal, 46.8 µM; in the assay with UACC-257 melanoma, 51.4 µM; with OVCAR-4 ovarian it was more than 60.5 µM; in the assay on SK-MEL-2 melanoma, 35.8 µM; with UO-31 renal, more than 86.2 µM. The molecule further returned a TGI in the assay on SNB-19 CNS of more than 100 µM.

These data come from PubChem BioAssay (NCI).
